Measurements published in patent US20230203485A1, “METHODS FOR MODULATING MHC-I EXPRESSION AND IMMUNOTHERAPY USES THEREOF” (Dana-Farber Cancer Institute, Inc., priority 2020, published 2023).

Legend:
Assay type in all cases: cell-based, human
surface HLA-I = assay: Interferon treatment of MCC lines, surface HLA-I by flow cytometry
Description: (§1) Cells were dissociated with Versene and incubated with 5 μL Human TruStain FcX (Fc Receptor Blocking Solution; Biolegend #422302) per million cells in 100 μL at room temperature for 10 min. Fluorophore-conjugated antibodies or respective isotype controls were added and incubated for another 30 min at 4° C. Cells were then washed once with PBS and resuspended in PBS or 4% paraformaldehyde and analyzed on an LSR Fortessa cytometer. For HLA-I and HLA-II detection, the following antibodies were used: HLA-ABC (W6/32 clone) conjugated to PE (BioLegend #311406), APC (BioLegend #311410), or AF647 (Santa Cruz Biotechnology #sc32235 AF647), and HLA-DR-FITC (BioLegend #307604).

HLA-DR = assay: IFN-γ treatment, HLA-DR by flow cytometry; conditions: MCC-301 cell line
Description: as §1

[1] = test system: class I pathway and IFN-γ pathway proteins (STAT1/p-STAT1) in MCC lines; assay: Whole proteome analysis (TMT LC-MS/MS) of MCC lines with and without IFNγ; conditions: MCC lines non-IFN-responsive by flow cytometry
Description: FIG. 2D is a proteomics heatmap depicting the relative expression of key IFN-γ pathway components in 4 of the MCC lines, both at baseline and after IFN-γ treatment.
FIG. 2E comprises graphs summarizing a targeted analysis of normalized STAT1 peptide counts (left) and STAT-Y701y phosphosite counts (right) between untreated and IFN-γ-treated cell lines.
Protein expression of MCC cell lines was assessed as described previously (Mertins et al. (2018) Nature Protocols 13 (7): 1632-61. Briefly, cell pellets of MCC cell lines with and without IFNγ treatment were lysed in 8M Urea and digested to peptides using LysC and Trypsin (Promega). 400 μg peptides were labeled with TMT10 reagents (Thermo Fisher, 126-MCC290, 127N-MCC350_IFN, 127C MCC275_IFN, 128N MCC275, 128C MCC350, 129N_MCC301_IFN, 129C-MCC277, 130N-MCC290_IFNy, 130C MCC277 IFN, 131 MCC301) and then pooled for subsequent fractionation and analysis. Pooled peptides were separated into 24 fractions using offline high pH reversed phase fractionation. 1 μg per fraction was loaded onto an analytical column (20-30 cm, 1.9 μm C18 Reprosil beads (Dr. Maisch HPLC GmbH), packed in-house PicoFrit 75 μM inner diameter, 10 μM emitter (New Objective)). […] During data dependent acquisition, peptides were analyzed on a Fusion Lumos (Thermo Scientific). […]

| Substance | fold increase in MFI of HLA-I after IFN-γ exposure (surface HLA-I; 8 lines) [fold] | median fold increase in MFI of HLA-I after IFN-γ exposure (surface HLA-I; 8 lines) [fold] | range of fold increase in MFI of HLA-I after IFN-γ exposure (surface HLA-I; 8 lines) | fold increase in MFI of HLA-I after IFN-γ exposure (surface HLA-I; three lines (MCC-336, -350, -358)) [fold] | HLA-DR expression (HLA-DR) | STAT1/p-STAT1 protein expression [1] |
| --- | --- | --- | --- | --- | --- | --- |
| IFN-γ: interferon gamma used to stimulate MCC cell lines | ≥ 2.5 | 5.7 | 2.5-12.4 fold | ≤ 1.15 | upregulated | – |
| IFN-y: type II interferon, recombinant human, used to treat MCC cells | – | – | – | – | – | lack of IFN-induced STAT1/p-STAT1 protein expression |
